{"source": "patent US12465617B2", "about": "“Methods and systems for inhibiting foreign-body responses in diabetic patients” (Medtronic MiniMed, Inc., priority 2013, dated 2025)", "key": {"diabetic porcine model": {"test_system": "diabetic porcine model", "assay": "Site-loss evaluation of insulin infusion sets in diabetic porcine model (blood glucose >350 mg/dl not corrected by insulin)", "assay_type": "in vivo, pig", "conditions": "for site-loss performance versus the control: agent formulated with insulin (Humalog)", "method": "The objectives of this study include duplicating the site-loss phenomena observed in previous studies using a diabetic porcine model. Additionally, various infusion set configurations are evaluated for reducing site-loss and extending infusion set wear. Further, site-loss is mitigated using a response-inhibiting agent and/or infusion pump to increase reliability of wear for 3 days and extend infusion set wear beyond 3 days.\nThe objectives of this study include: duplicating the site-loss phenomena observed in previous studies using the diabetic porcine model; using the established diabetic porcine model to evaluate the effects of various infusion set designs on infusion site-loss; and testing if site-loss can be mitigated by direct pump infusing of immunosuppressant/anti-inflammatory drugs, and/or by modifying infusion set by drug coating.\nThis study is designed so that each set (inserted under anesthesia) is to be worn for 1 week unless there was set failure/dislodge. Glucose is monitored by a blood glucose meter and Enlite™ sensor. The criteria for determining site loss is that blood glucose is greater than 350 mg/dl and fails to decrease following an insulin dose correction. During biopsy pumps are removed but the cannula is maintained in-situ. Site skin is examined for edema/erythema (swell/redness) (see FIG. 8)."}, "[1]": {"assay": "Assay of rapamycin/Humalog solution after use", "assay_type": "physicochemical", "conditions": "20 μg/mL solution assayed after use"}, "[2]": {"test_system": "normal and diabetic Yucatan pigs", "assay": "PK/PD study: blood glucose response to Humalog", "assay_type": "in vivo, Yucatan pig", "source_text": "Factors influencing insulin pK/pD properties include inflammation, infection, immune response, wound healing cascade, age of patients, type of insulin used, site of insertion, layer of scar tissue where the catheter tip resides, and several others. 6 Yucatan pigs were used in this study: 2 normal and 4 diabetic pigs, as shown in […]"}, "diabetic pig": {"test_system": "diabetic pig", "assay": "Histopathology of infusion sites (inflammation at catheter tip and body)", "assay_type": "in vivo", "conditions": "listed as Humalog™", "source_text": "FIG. 2A is a series of histologic evaluations at the catheter tip showing the inflammatory response (score), and size of the area with tissue reaction. “*” indicates the catheter location and “F” indicates normal fat. […] FIG. 2B is a series of graphs illustrating the inflammation at the catheter tip for diabetic and non-diabetic pigs. Localized inflammation loosely correlated with site-loss.\nFIG. 2C is a series of graphs illustrating the predominate inflammation cells at the catheter tip and catheter body (qualitative). To isolate the main inflammation contributors, a catheter, a catheter infused with insulin (Humalog™), and a catheter infused with placebo were placed on a diabetic pig at the same time.\nFIG. 2D is a series of graphs illustrating the predominate inflammation cells at the catheter tip and catheter body of an insulin injection port (i-Port™). To isolate the main inflammation contributors, a catheter, a catheter infused with insulin, and a catheter infused with placebo were placed on a diabetic pig. Compared to continuous infusion, the giant cells are missing in the i-Port™ study. […] As observed by the pathologist, the pigs may have developed a hypersensitivity to the Humalog™ and such a reaction would contribute to the inflammation seen (the degree that hypersensitivity is influencing the inflammation is unclear but it could be one of the main drivers)."}}, "note": "“Also recorded” adds a separate entry of the source.", "data": [{"compound": "CO[C@H]1C[C@@H]2CC[C@@H](C)[C@@](O)(O2)C(=O)C(=O)N2CCCC[C@H]2C(=O)O[C@H]([C@H](C)C[C@@H]2CC[C@@H](O)[C@H](OC)C2)CC(=O)[C@H](C)/C=C(\\C)[C@@H](O)[C@@H](OC)C(=O)[C@H](C)C[C@H](C)/C=C/C=C/C=C/1C", "note": "[Rapamycin]", "values": [{"measurement": "recovery of infusion site after", "setting": "diabetic porcine model; dosed with Humalog", "value": "around 6 days"}, {"measurement": "duration of wear before site-loss", "setting": "diabetic porcine model; formulation of insulin (Humalog) with agent, Sof-Set", "value": 5, "unit": "days"}, {"measurement": "stability of rapamycin in U100 Humalog solution", "setting": "[1]", "value": "*Rapamycin was later found to be degraded by assaying solution after use."}]}, {"compound": "C[C@@H]1C[C@H]2[C@@H]3CCC4=CC(=O)C=C[C@]4(C)[C@@]3(F)[C@@H](O)C[C@]2(C)[C@@]1(O)C(=O)COP(=O)(O)O", "note": "[DXP, Dexamethasone Phosphate]", "values": [{"measurement": "site-loss performance versus the control", "setting": "diabetic porcine model", "value": "significantly worse than the control"}]}, {"compound": "Insulin lispro", "values": [{"measurement": "blood glucose level lowering", "setting": "[2]", "value": "effectively lower blood glucose level"}, {"measurement": "order of evaluated inflammation scores", "setting": "diabetic pig; catheter, catheter infused with insulin, catheter infused with placebo on a diabetic pig", "value": "insulin≥placebo≥catheter; also recorded: insulin≥placebo≥cannula"}, {"measurement": "localized inflammation / tissue fibrosis", "setting": "diabetic pig; compared to catheter and placebo", "value": "associated with increased localized inflammation; also recorded: main contributor to localized tissue fibrosis"}]}, {"compound": "C[C@H]1C[C@H]2[C@@H]3CCC4=CC(=O)C=C[C@]4(C)[C@@]3(F)[C@@H](O)C[C@]2(C)[C@@]1(O)C(=O)COP(=O)([O-])[O-].[Na+].[Na+]", "note": "[BSP, betamethasone sodium phosphate]", "values": [{"measurement": "site-loss performance versus the control", "setting": "diabetic porcine model", "value": "significantly worse than the control"}]}, {"compound": "heparin sodium", "values": [{"measurement": "no site-loss occurred in", "setting": "diabetic porcine model; U100 Humalog with heparin sodium 3.55 mg/mL (685 U/mL), continuous infusion, pigs IM3 and IM4, control IM1 site-loss in 2 days", "value": "> 6", "unit": "days"}, {"measurement": "site-loss performance versus the control", "setting": "diabetic porcine model", "value": "significantly better than the control"}]}, {"compound": "Dextran Sulfate Sodium Salt", "values": [{"measurement": "site-loss performance versus the control", "setting": "diabetic porcine model", "value": "significantly better than the control"}]}]}
